Patent US12622902B2, “Anti-arrhythmic pharmaceutical composition and preparation method therefor” (JIANGSU KANION PHARMACEUTICAL CO., LTD., priority 2020, dated 2026)

Key:
[1] = Study of compositions of compound A and its salt under moisture and heat; type: physicochemical; settings: condition of moisture and heat
Source text: Accordingly, the present application provides an anti-arrhythmic pharmaceutical composition with high stability and rapid dissolution, and a preparation method thereof.

[2] = tested on: ventricular tachycardia and ventricular fibrillation; settings: cited from earlier work

COc1cc2c(cc1OCc1ccccc1)C(Cc1cccc(NS(C)(=O)=O)c1)NCC2 (stereo not drawn) [compound A, 1-(3-methanesulfonamidobenzyl)-6-methoxy, 7-benzyloxy-1,2,3,4-tetrahydroisoquinoline]
stability of the drug in a pharmaceutical composition [1]: decomposed | effect on ventricular tachycardia and ventricular fibrillation [2]: effective | action potential duration ([2]; class III anti-arrhythmic drug): can prolong
